PubChem BioAssay AID1919002 (Molecular Pharmacology Branch, DTP, NCI, 2023)

System: 743489-274-T-PDC complex spheroid growth
Test: Anticancer human tumor 743489-274-T-PDC patient-derived renal cell carcinoma cell line growth inhibition [AhR]
Conditions: for IC50: curve of first compound; for viability, T/C: stronger effect = lower value
Excerpt: Multicellular complex tumor spheroid response to aryl hydrocarbon receptor antagonists in combination with a variety of drugs and investigational agents in selected tumor cell lines
The current study was undertaken to assess response to aryl hydrocarbon receptor antagonists in combination with standard-of-care drugs and investigational agents in solid tumor complex spheroid models. Complex spheroids include a stromal component modeled by human endothelial cells (HUVEC) and fibroblasts modeled by human mesenchymal stem cells (MSCs). The concentration ranges selected for each drug and investigational agent were based upon clinically achievable concentrations if the clinical Cmax of the agent was known.
Compounds. The drugs and investigational agents: BAY 2416964 (NSC825713), GNF351 (NSC835774), CH-223191 (NSC835775), CPI-455 (NSC825282), aza-TdCyd (NSC777586), decitabine (NSC127716), belinostat (NSC758774), entinostat (NSC756642), pevonedistat (NSC761192), tazemetostat (NSC777109), talazoparib (NSC765396), olaparib (NSC753686), selinexor (NSC780203), nedisertib (M3814, NSC802822), bortezomib (NSC756655), venetoclax (NSC766270), doxorubicin (NSC123127), elimusertib (BAY189344, NSC800525), ceralasertib (AZD6738, NSC777638), TAK-243 (NSC785004), alisertib (NSC759677), etoposide (NSC141540), topotecan (NSC609699), eribulin (NSC707389), gemcitabine (NSC613327), carboplatin (NSC241240), cisplatin (NSC119875), and SN-38 (NSC673596) were obtained from the National Cancer Institute (NCI) Developmental Therapeutics Program Chemical Repository (32). The FDA-approved anticancer drug set is available from the Developmental Therapeutics Program at https://dtp.cancer.gov/organization/dscb/obtaining/available plates.htm. […] The stock solutions were prepared in dimethyl sulfoxide (DMSO, Sigma-Aldrich, St. Louis, MO, cat. D2650), except for the platinum compounds which were prepared in saline (Quality Biological, Gaithersburg, MD, cat. 114-055-101), at 800-fold the tested concentration and stored at -70 degrees C prior to their use. All drugs and investigational agents were tested over a range starting from a high concentration at or near the clinical Cmax and decreasing in half-log increments. If the clinical Cmax for an agent had not been determined, the highest concentration tested was 10 microM (Table 1).
Cell Culture. All cells were maintained in an incubator at 37 degrees C and 5% CO2 with 95% humidity. The PDC lines were cultured according to standard operating procedures established by the NCI PDMR (https://pdmr.cancer.gov). Briefly, all PDCs were thawed and cultured in Matrigel-coated flasks prepared with a working solution of 1X Ham's F-12 nutrient mix, without supplementation (Invitrogen, Waltham, MA, cat. 11765054), 100 U/mL penicillin-streptomycin (Invitrogen, cat. 15140122), and 2.5% Matrigel (Corning Inc., Corning, NY, cat. 354248) for the first three passages. All PDCs were cultured in complete DMEM/F-12 media containing advanced DMEM/F-12 (Invitrogen, cat. 12634028), 4.9% defined fetal bovine serum, heat inactivated (HyClone Laboratories Inc., Logan, UT, cat. SH30070.03HI), 389 ng/mL hydrocortisone (Sigma-Aldrich, cat. H4001), 9.7 ng/mL human EGF recombinant protein (Invitrogen, cat. PHG0313), 23.4 microg/mL adenine (Sigma-Aldrich, cat. A2786), 97.3 U/mL penicillin-streptomycin (Invitrogen, cat. 15140122), 1.9 mM L-glutamine (Invitrogen, cat. 25030081), and 9.7 microM Y-27632 dihydrochloride (Tocris Bioscience, Bristol, United Kingdom, cat. 1254). The PDCs were cultured in complete DMEM/F12 media without 10 microM Y-27632 dihydrochloride for at least two passages prior to the screen. The established cell lines NCI-H1341 and […] were cultured in DMEM/F-12, HEPES (Invitrogen, cat. 11330032), 5% defined fetal bovine serum (HyClone Laboratories Inc., cat. SH30070.03), ITS premix universal culture supplement [insulin (5 microg/mL), transferrin (5 microg/mL), and selenious acid (5 ng/mL)] […]

[1] = second compound 0.1 µM, first compound 0.0316 µM
[2] = second compound 0.1 µM, first compound 0.1 µM
[3] = second compound 0.316 µM, first compound 0.0316 µM
[4] = second compound 0.316 µM, first compound 0.1 µM
[5] = second compound 1 µM, first compound 0.0316 µM
[6] = second compound 1 µM, first compound 0.1 µM
[7] = second compound 3.16 µM, first compound 0.0316 µM
[8] = second compound 3.16 µM, first compound 0.1 µM
[9] = second compound 10 µM, first compound 0.0316 µM
[10] = second compound 10 µM, first compound 0.1 µM
[11] = second compound 0.1 µM, first compound 0.316 µM
[12] = second compound 0.1 µM, first compound 1 µM
[13] = second compound 0.1 µM, first compound 3.16 µM
[14] = second compound 0.1 µM, first compound 10 µM
[15] = second compound 0.316 µM, first compound 0.316 µM
[16] = second compound 0.316 µM, first compound 1 µM
[17] = second compound 0.316 µM, first compound 3.16 µM
[18] = second compound 0.316 µM, first compound 10 µM
[19] = second compound 1 µM, first compound 0.316 µM
[20] = second compound 1 µM, first compound 1 µM
[21] = second compound 1 µM, first compound 3.16 µM
[22] = second compound 1 µM, first compound 10 µM
[23] = second compound 3.16 µM, first compound 0.316 µM
[24] = second compound 3.16 µM, first compound 1 µM
[25] = second compound 3.16 µM, first compound 3.16 µM
[26] = second compound 3.16 µM, first compound 10 µM
[27] = second compound 10 µM, first compound 0.316 µM
[28] = second compound 10 µM, first compound 1 µM
[29] = second compound 10 µM, first compound 3.16 µM
[30] = second compound 10 µM, first compound 10 µM
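Also: spheroids exposed to agents for 7 days before readout.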
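For viability, T/C in this document: 100% = DMSO vehicle control wells.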

| Structure (SMILES) | IC50 (second compound 0.1 µM) | IC50 (second compound 0.316 µM) | IC50 (second compound 1 µM) | IC50 (second compound 3.16 µM) | IC50 (second compound 10 µM) | viability, T/C [1] | viability, T/C [2] | viability, T/C [3] | viability, T/C [4] | viability, T/C [5] | viability, T/C [6] | viability, T/C [7] | viability, T/C [8] | viability, T/C [9] | viability, T/C [10] | viability, T/C [11] | viability, T/C [12] | viability, T/C [13] | viability, T/C [14] | viability, T/C [15] | further results |
| --- | --- | --- | --- | --- | --- | --- | --- | --- | --- | --- | --- | --- | --- | --- | --- | --- | --- | --- | --- | --- | --- |
| CC[C@@]1(O)C(=O)OCc2c1cc1n(c2=O)Cc2cc3c(CN(C)C)c(O)ccc3nc2-1 + CC(CO)NC(=O)c1cc(-c2ccc(Cl)cc2)nn(-c2cnn(C)c2)c1=O | > 0.1 µM | > 0.1 µM | > 0.1 µM | > 0.1 µM | > 0.1 µM | 86.6% | 86.4% | 83.3% | 82.3% | 86.2% | 79% | 92.5% | 88.3% | 85.9% | 81.4% |  |  |  |  |  | viability, T/C (second compound 0.1 µM, first compound 0.000316 µM): 99.8%; viability, T/C (second compound 0.1 µM, first compound 0.001 µM): 97.9%; viability, T/C (second compound 0.1 µM, first compound 0.00316 µM): 91.4%; viability, T/C (second compound 0.1 µM, first compound 0.01 µM): 94.4%; viability, T/C (second compound 0.316 µM, first compound 0.000316 µM): 90.7%; viability, T/C (second compound 0.316 µM, first compound 0.001 µM): 96.5%; viability, T/C (second compound 0.316 µM, first compound 0.00316 µM): 102%; viability, T/C (second compound 0.316 µM, first compound 0.01 µM): 84.7%; viability, T/C (second compound 1 µM, first compound 0.000316 µM): 96.2%; viability, T/C (second compound 1 µM, first compound 0.001 µM): 98.9%; viability, T/C (second compound 1 µM, first compound 0.00316 µM): 95.4%; viability, T/C (second compound 1 µM, first compound 0.01 µM): 87%; viability, T/C (second compound 3.16 µM, first compound 0.000316 µM): 91.2%; viability, T/C (second compound 3.16 µM, first compound 0.001 µM): 89.9%; viability, T/C (second compound 3.16 µM, first compound 0.00316 µM): 92.4%; viability, T/C (second compound 3.16 µM, first compound 0.01 µM): 84%; viability, T/C (second compound 10 µM, first compound 0.000316 µM): 92.4%; viability, T/C (second compound 10 µM, first compound 0.001 µM): 92.7%; viability, T/C (second compound 10 µM, first compound 0.00316 µM): 109%; viability, T/C (second compound 10 µM, first compound 0.01 µM): 92.4% |
| COc1cc(C2c3cc4c(cc3C(OC3OC5COC(C)OC5C(O)C3O)C3COC(=O)C23)OCO4)cc(OC)c1O (stereo not given) + CC(CO)NC(=O)c1cc(-c2ccc(Cl)cc2)nn(-c2cnn(C)c2)c1=O | > 10 µM | > 10 µM | > 10 µM | > 10 µM | > 10 µM | 107% | 114% | 99.3% | 118% | 98.6% | 96.4% | 99.9% | 97% | 108% | 109% | 95.1% | 95.9% | 99.6% | 97% | 108% | viability, T/C [16]: 93.5%; viability, T/C [17]: 92%; viability, T/C [18]: 90.7%; viability, T/C [19]: 101%; viability, T/C [20]: 103%; viability, T/C [21]: 86.6%; viability, T/C [22]: 94.9%; viability, T/C [23]: 102%; viability, T/C [24]: 95.4%; viability, T/C [25]: 97.7%; viability, T/C [26]: 90.9%; viability, T/C [27]: 103%; viability, T/C [28]: 106%; viability, T/C [29]: 97%; viability, T/C [30]: 92.1% |
| Nc1ccn(C2OC(CO)C(O)C2(F)F)c(=O)n1 (stereo not given) + CC(CO)NC(=O)c1cc(-c2ccc(Cl)cc2)nn(-c2cnn(C)c2)c1=O | > 10 µM | > 10 µM | > 10 µM | > 10 µM | > 10 µM | 81.9% | 79.7% | 80.7% | 73% | 84% | 68.5% | 81.1% | 75.9% | 90.2% | 82.5% | 71.8% | 62.2% | 59.9% | 67.7% | 70.8% | viability, T/C [16]: 68.3%; viability, T/C [17]: 62.6%; viability, T/C [18]: 69.9%; viability, T/C [19]: 68.3%; viability, T/C [20]: 59.5%; viability, T/C [21]: 70%; viability, T/C [22]: 71.5%; viability, T/C [23]: 64.4%; viability, T/C [24]: 64.7%; viability, T/C [25]: 76.6%; viability, T/C [26]: 63.6%; viability, T/C [27]: 65.3%; viability, T/C [28]: 65.1%; viability, T/C [29]: 77.2%; viability, T/C [30]: 74.3% |
